Data from PubChem BioAssay AID624024 (Broad Institute, 2012).
Records with an inconclusive call do not appear. Calls of active or inactive are those of the source.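 The calls were made as follows: active = fitted curve rises past 40% HDL binding increase at a concentration no higher than twice the top valid tested dose; inconclusive = no clear call, values can overlap the other calls; inactive = effects opposite to the expected rise, plus the rest.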

Target: Scavenger receptor class B member 1 (Mus musculus) (UniProt Q61009)
Sequence (Q61009 whole entry, looked up): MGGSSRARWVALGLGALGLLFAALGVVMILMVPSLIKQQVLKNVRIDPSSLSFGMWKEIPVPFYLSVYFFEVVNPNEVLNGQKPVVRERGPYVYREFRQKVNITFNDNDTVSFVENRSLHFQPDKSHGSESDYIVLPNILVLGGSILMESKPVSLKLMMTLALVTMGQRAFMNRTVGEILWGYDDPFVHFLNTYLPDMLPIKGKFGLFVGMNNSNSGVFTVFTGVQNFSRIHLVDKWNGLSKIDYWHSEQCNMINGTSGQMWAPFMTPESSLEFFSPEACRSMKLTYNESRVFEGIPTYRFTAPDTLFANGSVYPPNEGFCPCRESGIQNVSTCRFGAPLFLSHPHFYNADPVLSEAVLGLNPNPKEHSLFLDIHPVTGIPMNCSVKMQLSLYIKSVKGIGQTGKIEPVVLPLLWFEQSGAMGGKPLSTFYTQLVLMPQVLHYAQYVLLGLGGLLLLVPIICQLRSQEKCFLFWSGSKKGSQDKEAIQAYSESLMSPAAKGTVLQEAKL
Test: modulators of Alexa488-HDL binding to SR-BI, dose response, orthogonal assay for SR-BI HDL uptake inhibitor project, cell-based, ldlA[mSR-BI] CHO, Alexa 488-HDL, powder samples, set 3 (AID 624024)
Details: ldlA[mSR-BI] CHO cells, Alexa488-HDL binding fluorescence, 3 h; for HDL binding change, positive = increase: at 35 µM (top of the series)

| HDL binding change, positive = increase | AC40 [nM] | SMILES |
| --- | --- | --- |
| 4.51% (inactive) |  | O=C1C2C3C=CC(C3)C2C(=O)N1c1cccc(N2C(=O)C3C4C=CC(C4)C3C2=O)n1 (configuration not stated) |
|  | 3380 | CNC[C@@H]1Oc2ccc(NC(=O)NC(C)C)cc2C(=O)N([C@H](C)CO[Si](C)(C)C(C)(C)C)C[C@H]1C |
|  | 544 | CC(C)NC(=O)Nc1cccc2c1O[C@@H](CN(C)S(=O)(=O)c1ccc(Cl)cc1)[C@H](C)CN([C@H](C)CO)C2=O |
|  | 6330 | C[C@@H]1CN([C@H](C)CO[Si](C)(C)C(C)(C)C)C(=O)c2cc(NC(=O)C3CCCCC3)ccc2O[C@H]1CN(C)C(=O)c1ccc(Cl)cc1 |
|  | 33.2 | C[C@@H]1CN([C@H](C)CO)C(=O)c2cc(NC(=O)Nc3ccc(F)cc3)ccc2O[C@H]1CN(C)S(=O)(=O)c1ccc(Cl)cc1 |
| 64.3% (inactive) |  | O=C(O)CC(C(=O)Nc1cccc(C(F)(F)F)c1)C1CCCO1 (configuration not stated) |
|  | 3670 | CCOc1cc2c3c(c1)C1(C(=O)N3C(C)(C)CC2C)C(C#N)=C(N)N2C(=C1C#N)Nc1ccccc12 (configuration not stated) |
|  | 671 | CC(C)NC(=O)Nc1ccc2c(c1)C(=O)N([C@@H](C)CO)C[C@H](C)[C@@H](CN(C)S(=O)(=O)c1ccc(Cl)cc1)O2 |
|  | 772 | CC(C)CN(C(=O)COC(=O)C12CC3CC(CC(O)(C3)C1)C2)C1CCS(=O)(=O)C1 (configuration not stated) |
| 36% (inactive) |  | Cc1ccc(OCc2cc(C(=O)N3CCCC(O)C3)no2)cn1 (configuration not stated) |
|  | 16.6 | CC(=O)Nc1ccc(Cl)c(C(=O)Nc2ccc(N3CCN(C(=O)OC(C)(C)C)CC3)cc2)c1 |
|  | 222 | C[C@@H]1CN([C@H](C)CO)C(=O)c2cc(NC(=O)C3CCCCC3)ccc2O[C@H]1CN(C)S(=O)(=O)c1ccccc1Cl |
|  | 138 | Cc1noc(C)c1S(=O)(=O)Nc1ccc2c(c1)C(=O)N([C@H](C)CO)C[C@@H](C)[C@H](CN(C)S(=O)(=O)c1ccc(Cl)cc1)O2 |
|  | 3040 | C[C@@H]1CN([C@H](C)CO)C(=O)c2cc(NC(=O)C3CCCCC3)ccc2O[C@H]1CN(C)S(=O)(=O)c1cccc(Cl)c1 |
| 37.2% (inactive) |  | COc1ccc2c(c1)CC(C1(O)C(=O)N(C)c3ccccc31)C2=O (configuration not stated) |
|  | 1870 | C=CCOC(=O)N(C)C[C@@H]1Oc2ccc(NC(=O)OCC3c4ccccc4-c4ccccc43)cc2C(=O)N([C@H](C)CO)C[C@H]1C |

| HDL binding change, positive = increase | AC40 [nM] | SMILES |
| --- | --- | --- |
|  | 57.6 | CC(C)NC(=O)Nc1ccc2c(c1)C(=O)N([C@@H](C)CO)C[C@@H](C)[C@@H](CN(C)S(=O)(=O)c1ccc(Cl)cc1)O2 |
|  | 20.3 | CC(C)NC(=O)Nc1ccc2c(c1)C(=O)N([C@@H](C)CO)C[C@@H](C)[C@H](CN(C)S(=O)(=O)c1ccc(Cl)cc1)O2 |
|  | 4.61 | C[C@@H]1CN([C@H](C)CO)C(=O)c2cc(NC(=O)Cc3cn(C)c4ccccc34)ccc2O[C@H]1CN(C)S(=O)(=O)c1ccc(Cl)cc1 |
|  | 218 | COc1c(NC(=O)C(=O)c2ccc(OCCN3CCOCC3)c3ccccc23)cc(C(C)(C)C)cc1NS(C)(=O)=O |
|  | 12.1 | CC(C)NC(=O)Nc1ccc2c(c1)C(=O)N([C@@H](C)CO)C[C@H](C)[C@H](CN(C)S(=O)(=O)c1ccc(Cl)cc1)O2 |
|  | 155 | CC(C)(C)OC(=O)N1CCN(c2ccc(NC(=O)c3cc([N+](=O)[O-])ccc3Cl)cc2)CC1 |
|  | 1970 | C[C@@H]1CN([C@H](C)CO)C(=O)c2cc(NC(=O)C3CCOCC3)ccc2O[C@H]1CN(C)S(=O)(=O)c1ccc(Cl)cc1 |
|  | 2.72 | CCCCCCC1CCC/C1=N\NC(N)=S (configuration not stated) |
|  | 3690 | CC(C)NC(=O)Nc1ccc2c(c1)C(=O)N([C@H](C)CO)C[C@@H](C)[C@@H](CN(C)S(=O)(=O)c1ccc(Cl)cc1)O2 |
|  | 33.2 | C[C@@H]1CN([C@H](C)CO)C(=O)c2cc(NC(=O)C3CCCCC3)ccc2O[C@H]1CN(C)S(=O)(=O)c1ccc(Cl)cc1 |
|  | 19.9 | COCC(=O)N1CCc2cc(-c3csc(NC(=O)c4cc(OC)cc(OC)c4)n3)ccc21 |
|  | 16.7 | C[C@H](C(=O)NC1CCCC1)N(C(=O)Cn1nnc(-c2ccc3c(c2)OCO3)n1)C1CCCCC1 |
| 90.1% (inactive) |  | C=CCOC(=O)N(C)C[C@@H]1Oc2ccc(NC(=O)NC(C)C)cc2C(=O)N([C@H](C)CO[Si](C)(C)C(C)(C)C)C[C@H]1C |
|  | 17500 | C[C@@H]1CN([C@H](C)CO)C(=O)c2cc(NC(=O)C3CCCCC3)ccc2O[C@H]1CN(C)C(=O)c1ccc(Cl)cc1 |
|  | 3760 | C=CCOC(=O)N(C)C[C@@H]1Oc2ccc(N)cc2C(=O)N([C@H](C)CO[Si](C)(C)C(C)(C)C)C[C@H]1C |
|  | 1.76 | C[C@@H]1CN([C@H](C)CO)C(=O)c2cc(NC(=O)Cc3cn(C)c4ccccc34)ccc2O[C@H]1CN(C)S(=O)(=O)c1ccc(F)cc1 |
